20 compounds from US8637523B2, “Compounds for the reduction of beta-amyloid production” (Bristol-Myers Squibb Company, priority 2010, dated 2014) can be followed below.

Where two headings read alike, the source gives them in different places.

This assay has as its system Aβ42. Briefly: Cellular assay for inhibition of Aβ1-42 production (H4 APP751 SWE clone 8.20). In kind it is cell-based. The conditions noted are these: H4 APP751 SWE clone 8.20 cells, 19 h incubation. How it is done:
Cellular Assays for Inhibition of Aβ1-40 and Aβ1-42 Production
H4 cells stably transfected with APP751 containing the Swedish mutation (H4 APP751 SWE clone 8.20, developed at BMS) were maintained in log phase through twice weekly passage at a 1:20 split. […] Following incubation for 19 h in 5% CO2 at 37° C., plates were briefly centrifuged (1000 rpm, 5 min). A 10 μl aliquot from each well was transferred to a second assay plate (Costar 3709) for Aβ40 measurements. Antibody cocktails were freshly prepared by dilution into 40 mM Tris-HCl (pH 7.4) with 0.2% BSA and added to assay plates. For Aβ42 measurements, antibodies specific for the Aβ42 neoepitope (565, developed at BMS; conjugated to the Wallac reagent (Perkin Elmer)) and the N-terminal sequence of Aβ peptide (26D6, developed at SIBIA; conjugated to APC (Perkin Elmer)) were mixed and 20 μl of the mixture was added to each well of the incubated cell plate yielding a final concentration of 0.8 ng/well 565 and 75 ng/well 26D6. For the Aβ40 measurements, antibodies specific for the Aβ40 neoepitope (TSD, developed at BMS; conjugated to the Wallac reagent (Perkin Elmer)) and 26D6 as described above were mixed and 20 μl of the mixture was added to the 10 μl aliquots which had been removed previously from the cell plate yielding a final concentration of 1.6 ng/well TSD and 17.5 ng/well 26D6. Assay plates containing antibodies were sealed with aluminum foil and incubated overnight at 4° C. Signal was determined using a Viewlux counter (Perkin Elmer) and IC50 values determined using curve fitting in CurveMaster (Excel Fit based).

[1] abbreviates: read-out: Activity Rating (Aβ42 cellular IC50), class symbol.
Where [2] appears, read: unit inferred, read-out: Activity Rating (Aβ42 cellular IC50), numeric value.
Setting [3] is: 19 h, read-out: Activity Rating (Aβ42 cellular IC50), class symbol.
Where [4] appears, read: 19 h, unit inferred, read-out: Activity Rating (Aβ42 cellular IC50), numeric value.

Regarding `Fc1ccc(C2CCc3c4nc(nc32)Nc2ccc(-n3cnc(Cl)c3)c(c2)OCC=CCN4)c(F)c1` (centres unmarked) [Example 15A, (11E)-7-(4-chloro-1H-imidazol-1-yl)-18-(2,4-difluorophenyl)-10,13,14,16,17,18-hexahydro-15,2-(azeno)-8,4-(metheno)cyclopenta[h][1,6,10,12]oxatriazacycloheptadecine], the IC50 (commonly the point on the concentration scale where inhibition reaches its midpoint) under setting [1] is less than 10 nM.
For the compound `Fc1ccc(C2CCc3c4nc(nc32)Nc2ccc(-n3cnc(Cl)c3)c(c2)OCC=CCN4)c(F)c1` (centres unmarked) [Example 15B, (11E)-7-(4-chloro-1H-imidazol-1-yl)-18-(2,4-difluorophenyl)-10,13,14,16,17,18-hexahydro-15,2-(azeno)-8,4-(metheno)cyclopenta[h][1,6,10,12]oxatriazacycloheptadecine], under setting [2], the IC50 was 23 nM.
Still for that read-out and setting: then `Clc1cn(-c2ccc3cc2OCC=CCCc2nc(nc4c2CCC4c2ccccc2)N3)cn1` (centres unmarked) [Example 17A, (11E)-7-(4-chloro-1H-imidazol-1-yl)-18-phenyl-10,13,14,16,17,18-hexahydro-15,2-(azeno)-8,4-(metheno)cyclopenta[h][1,10,12]oxadiazacycloheptadecine], with 5.6 nM.
In the case of `Clc1cn(-c2ccc3cc2OCC=CCCc2nc(nc4c2CCC4c2ccccc2)N3)cn1` (centres unmarked) [Example 17B, (11E)-7-(4-chloro-1H-imidazol-1-yl)-18-phenyl-10,13,14,16,17,18-hexahydro-15,2-(azeno)-8,4-(metheno)cyclopenta[h][1,10,12]oxadiazacycloheptadecine], under setting [1], the IC50 is 10 to 100 nM.
Turning to `CN1C/C=C\COc2cc(ccc2-n2cnc(Cl)c2)Nc2nc3c(c1n2)CCC3c1ccc(F)cc1F` (centres unmarked) [Example 18A, (11Z)-7-(4-chloro-1H-imidazol-1-yl)-18-(2,4-difluorophenyl)-14-methyl-10,13,14,16,17,18-hexahydro-15,2-(azeno)-8,4-(metheno)cyclopenta[h][1,6,10,12]oxatriazacycloheptadecine], the IC50 under setting [3] is less than 10 nM.
With `CN1C/C=C\COc2cc(ccc2-n2cnc(Cl)c2)Nc2nc3c(c1n2)CCC3c1ccc(F)cc1F` (centres unmarked) [Example 18B, (11Z)-7-(4-chloro-1H-imidazol-1-yl)-18-(2,4-difluorophenyl)-14-methyl-10,13,14,16,17,18-hexahydro-15,2-(azeno)-8,4-(metheno)cyclopenta[h][1,6,10,12]oxatriazacycloheptadecine], the half-maximal inhibitory concentration (IC50) under setting [4] turned out to be 47 nM.
As to `CN1CCCCOc2cc(ccc2-n2cnc(Cl)c2)Nc2nc3c(c1n2)CCC3c1ccc(F)cc1F` (centres unmarked) [Example 19A, 7-(4-chloro-1H-imidazol-1-yl)-18-(2,4-difluorophenyl)-14-methyl-10,11,12,13,14,16,17,18-octahydro-15,2-(azeno)-8,4-(metheno)cyclopenta[h][1,6,10,12]oxatriazacycloheptadecine], the IC50 under setting [3] was less than 10 nM.
With `CN1CCCCOc2cc(ccc2-n2cnc(Cl)c2)Nc2nc3c(c1n2)CCC3c1ccc(F)cc1F` (centres unmarked) [Example 19B, 7-(4-chloro-1H-imidazol-1-yl)-18-(2,4-difluorophenyl)-14-methyl-10,11,12,13,14,16,17,18-octahydro-15,2-(azeno)-8,4-(metheno)cyclopenta[h][1,6,10,12]oxatriazacycloheptadecine], the IC50 under setting [1] lay within 10 to 100 nM.
For `CN1CCCOc2cc(ccc2-n2cnc(Cl)c2)Nc2nc3c(c1n2)CCC3c1ccc(F)cc1F` (centres unmarked) [Example 20A, 7-(4-chloro-1H-imidazol-1-yl)-17-(2,4-difluorophenyl)-13-methyl-11,12,13,15,16,17-hexahydro-10H-14,2-(azeno)-8,4-(metheno)cyclopenta[g][1,5,9,11]oxatriazacyclohexadecine], under setting [3], the IC50 is less than 10 nM.
For the compound `CN1CCCOc2cc(ccc2-n2cnc(Cl)c2)Nc2nc3c(c1n2)CCC3c1ccc(F)cc1F` (centres unmarked) [Example 20B, 7-(4-chloro-1H-imidazol-1-yl)-17-(2,4-difluorophenyl)-13-methyl-11,12,13,15,16,17-hexahydro-10H-14,2-(azeno)-8,4-(metheno)cyclopenta[g][1,5,9,11]oxatriazacyclohexadecine], the IC50 under setting [4] worked out at 11 nM.
Take `N#Cc1ccc2cc1OCC=CCNc1nc(nc3c1CCC3c1ccccc1)N2` (centres unmarked) [Example 21A, (11Z)-7-cyano-18-phenyl-10,13,14,16,17,18-hexahydro-15,2-(azeno)-8,4-(metheno)cyclopenta[h][1,6,10,12]oxatriazacycloheptadecine]: the IC50 under setting [2] stood at 7.8 nM.
As for `N#Cc1ccc2cc1OCC=CCNc1nc(nc3c1CCC3c1ccccc1)N2` (centres unmarked) [Example 22A, (11E)-7-cyano-18-phenyl-10,13,14,16,17,18-hexahydro-15,2-(azeno)-8,4-(metheno)cyclopenta[h][1,6,10,12]oxatriazacycloheptadecine], the IC50 under setting [1] lay in the range of 10 to 100 nM.
Turning to `N#Cc1ccc2cc1OCCCCNc1nc(nc3c1CCC3c1ccccc1)N2` (centres unmarked) [Example 23A, 7-cyano-18-phenyl-10,11,12,13,14,16,17,18-octahydro-15,2-(azeno)-8,4-(metheno)cyclopenta[h][1,6,10,12]oxatriazacycloheptadecine], the IC50 under setting [3] is 10 to 100 nM.
Turning to `N#Cc1ccc2cc1OCC=CCNc1nc(nc3c1CCC3c1ccc(F)cc1F)N2` (centres unmarked) [Example 24A, (11Z)-7-cyano-18-(2,4-difluorophenyl)-10,13,14,16,17,18-hexahydro-15,2-(azeno)-8,4-(metheno)cyclopenta[h][1,6,10,12]oxatriazacycloheptadecine], the IC50 under setting [1] was less than 10 nM.
As to `N#Cc1ccc2cc1OCC=CCNc1nc(nc3c1CCC3c1ccc(F)cc1F)N2` (centres unmarked) [Example 24B, (11Z)-7-cyano-18-(2,4-difluorophenyl)-10,13,14,16,17,18-hexahydro-15,2-(azeno)-8,4-(metheno)cyclopenta[h][1,6,10,12]oxatriazacycloheptadecine], the IC50 under setting [2] is 43 nM.
For `CN1C/C=C\COc2cc(ccc2C#N)Nc2nc3c(c1n2)CCC3c1ccc(F)cc1F` (centres unmarked) [Example 28A, (11Z)-7-cyano-18-(2,4-difluorophenyl)-14-methyl-10,13,14,16,17,18-hexahydro-15,2-(azeno)-8,4-(metheno)cyclopenta[h][1,6,10,12]oxatriazacycloheptadecine], the IC50 under setting [4] worked out at 13 nM.
As for `CN1C/C=C\COc2cc(ccc2C#N)Nc2nc3c(c1n2)CCC3c1ccc(F)cc1F` (centres unmarked) [Example 28B, (11Z)-7-cyano-18-(2,4-difluorophenyl)-14-methyl-10,13,14,16,17,18-hexahydro-15,2-(azeno)-8,4-(metheno)cyclopenta[h][1,6,10,12]oxatriazacycloheptadecine], the IC50 under setting [3] lay in the range of 100 to 1000 nM.
Consider `CN1CC=CCOc2cc(ccc2C#N)Nc2nc3c(c1n2)CCC3c1ccccc1` (centres unmarked) [Example 29A, (11Z)-7-cyano-14-methyl-18-phenyl-10,13,14,16,17,18-hexahydro-15,2-(azeno)-8,4-(metheno)cyclopenta[h][1,6,10,12]oxatriazacycloheptadecine], for which, under setting [1], the IC50 was less than 10 nM.
Same read-out and setting: the same measure for `CN1CC=CCOc2cc(ccc2C#N)Nc2nc3c(c1n2)CCC3c1ccccc1` (centres unmarked) [Example 29B, (11Z)-7-cyano-14-methyl-18-phenyl-10,13,14,16,17,18-hexahydro-15,2-(azeno)-8,4-(metheno)cyclopenta[h][1,6,10,12]oxatriazacycloheptadecine]: 100 to 1000 nM; for `CN1CC=CCOc2cc(ccc2C#N)Nc2nc3c(c1n2)CCC3c1ccccc1` (centres unmarked) [Example 30A, (11E)-7-cyano-14-methyl-18-phenyl-10,13,14,16,17,18-hexahydro-15,2-(azeno)-8,4-(metheno)cyclopenta[h][1,6,10,12]oxatriazacycloheptadecine]: 10 to 100 nM.
